{"source": "patent US5304540A", "about": "“Pharmaceutical bacteriocin compositions and methods for using the same” (Applied Microbiology, Inc., priority 1993, dated 1994)", "key": {"Escherichia coli": {"test_system": "Escherichia coli", "assay": "Germicidal suspension assay, E. coli;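 further: surviving cells were scored as colonies on nutrient agar after 24 h at 37° C, survival given as percent of untreated controls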", "assay_type": "cell-based", "conditions": "for % survival at 1 min: 37° C.", "protocol": "E. coli cells from an overnight Trypticase soy nutrient agar (TSA) were resuspended to a density measured as an absorbance of 1.0 at 600 nm in sterile ddH2 O. The reaction of the cells with each of the bactericidal test formulations analyzed was started by addition of 30 μl of cells to 970 μl of test formulation. The reaction mixture was incubated at 37° C for at least 1 minute and then centrifuged in a microfuge for 1 minute. The cell pellet was washed by resuspension in 1 ml of neutralization buffer. (The neutralization buffer: 50 mM Tris-HCl, pH 7.0, 5 mM MgSO4, 20 mM CaCl2, 0.1 M NaCl and 0.1% gelatin was prepared by first making Tris buffer and adjusting the pH. The salts and gelatin were then added and the solution stirred with heat until the solution was clear. The solution was then autoclaved for 20 min. The neutralization buffer was used without dilution.) The cells were centrifuged in a microfuge for 1 minute and resuspended in 1 ml of neutralization buffer. The viable count was determined by spreading 100 μl of bacterial suspension and serial dilutions thereof in neutralization buffer on nutrient agar and scoring surviving colonies after 24 h at 37° C. Percent survival relative to untreated controls was calculated from the scored values."}, "E. coli strain ATCC8739": {"test_system": "E. coli strain ATCC8739", "assay": "Nisin-citrate agar growth inhibition assay", "assay_type": "cell-based, Escherichia coli", "procedure": "The nisin-citrate agar assay is performed as follows. E. coli is resuspended to an optical density of 1.0 at A600. A 100 μl sample of the bacterial suspension is spread uniformly on Trypticase Soy nutrient agar (TSA) supplemented with various concentrations of citrate (e.g. 0.1%, 0.3%, 1.0%, 3.0%) and incubated for 1 hour at 37° C. A nisin stock solution and serial dilutions thereof in 0.1% bovine serum albumin (BSA), are prepared and 5 μl are taken from each and deposited onto the growing bacterial lawn. The TSA plates are then incubated for 24 hours at 37° C. After 24 hours at 37° C., E. coli grown on TSA supplemented with citrate form a confluent lawn. […] The effectiveness of nisin against the gram negative bacteria can be assessed from determining the minimum amount of nisin required to produce a clear zone of growth inhibition. As the concentration of citrate in the nutrient agar is increased, less nisin is required to inhibit the growth of E. coli, as is illustrated by the data shown in Table 6."}}, "note": "Read-outs that look alike come from different tables or passages of the source."}
{"substance": "nisin", "values": [{"measurement": "% survival at 5 min", "setting": "Helicobacter pylori; pH 7", "value": 5.88}, {"measurement": "% survival at 5 min", "setting": "Helicobacter pylori; strain ATCC43504, pH 5.0, citrate 0, nisin 100 μg/ml, second of two experiments (initial 3.26 × 10^5 cfu/ml)", "value": 0.043, "unit": "%"}, {"measurement": "% survival at 5 min", "setting": "Helicobacter pylori; strain ATCC43504, pH 7.0, citrate 0, nisin 100 μg/ml, initial 9.62 × 10^4 cfu/ml", "value": 2.08, "unit": "%"}, {"measurement": "% survival at 5 min", "setting": "Helicobacter pylori; strain ATCC43579, citrate 0, nisin 100 μg/ml, pH 5.0, average of 5 experiments", "value": 0.30, "unit": "%"}, {"measurement": "% survival at 5 min", "setting": "Helicobacter pylori; strain ATCC43579, pH 5.0, citrate 0, nisin 100 μg/ml, 37° C., initial 1.04 × 10^4 cfu/ml", "value": 9.62, "unit": "%"}, {"measurement": "% survival at 5 min", "setting": "Helicobacter pylori; strain ATCC43579, pH 5.0, nisin 10 μg/ml, citrate 0.1% where present, 37° C.", "value": 1.31, "unit": "%"}, {"measurement": "% survival at 5 min", "setting": "Helicobacter pylori; strain ATCC43579, pH 5.0, nisin 30 μg/ml, citrate 0.1% where present, 37° C.", "value": 0.39, "unit": "%"}, {"measurement": "% survival at 5 min", "setting": "Helicobacter pylori; strain ATCC43579, pH 5.0, nisin 100 μg/ml, citrate 0.1% where present, 37° C.", "value": 0.085, "unit": "%"}, {"measurement": "% survival at 5 min", "setting": "Helicobacter pylori; strain ATCC43579, pH 5.0, nisin 300 μg/ml, citrate 0.1% where present, 37° C.", "value": 0.0056, "unit": "%"}, {"measurement": "% survival at 5 min", "setting": "Helicobacter pylori; strain ATCC43579, pH 7.0, citrate 0, nisin 100 μg/ml, 37° C.", "value": 0.78, "unit": "%"}, {"measurement": "% survival at 1 min", "setting": "Escherichia coli; 0.1% w/v acetate pH 3.5, nisin 100 μg/ml and/or EDTA 1.0 mM where present, initial 2 × 10^7 cfu/ml", "value": 9.6, "unit": "%"}, {"measurement": "% survival at 1 min", "setting": "Escherichia coli; 0.1% w/v lactate pH 3.5, nisin 100 μg/ml and/or EDTA 1.0 mM where present, initial 5 × 10^7 cfu/ml", "value": 4.4, "unit": "%"}, {"measurement": "% survival at 1 min", "setting": "Escherichia coli; 0.1% w/v succinate pH 3.5, nisin 100 μg/ml and/or EDTA 1.0 mM where present, initial 3.4 × 10^6 cfu/ml", "value": 18.3, "unit": "%"}, {"measurement": "% survival at 1 min", "setting": "Escherichia coli; 0.3% w/v acetate pH 3.5, nisin 100 μg/ml and/or EDTA 1.0 mM where present, initial 2 × 10^7 cfu/ml", "value": 70, "unit": "%"}, {"measurement": "% survival at 1 min", "setting": "Escherichia coli; 0.3% w/v lactate pH 3.5, nisin 100 μg/ml and/or EDTA 1.0 mM where present, initial 5 × 10^7 cfu/ml", "value": 0.24, "unit": "%"}, {"measurement": "% survival at 1 min", "setting": "Escherichia coli; 0.3% w/v succinate pH 3.5, nisin 100 μg/ml and/or EDTA 1.0 mM where present, initial 3.4 × 10^6 cfu/ml", "value": 66.6, "unit": "%"}, {"measurement": "% survival at 1 min", "setting": "Escherichia coli; 1.0% w/v acetate pH 3.5, nisin 100 μg/ml and/or EDTA 1.0 mM where present, initial 2 × 10^7 cfu/ml", "value": 100, "unit": "%"}, {"measurement": "% survival at 1 min", "setting": "Escherichia coli; 1.0% w/v lactate pH 3.5, nisin 100 μg/ml and/or EDTA 1.0 mM where present, initial 5 × 10^7 cfu/ml", "value": 17.8, "unit": "%"}, {"measurement": "% survival at 1 min", "setting": "Escherichia coli; 1.0% w/v succinate pH 3.5, nisin 100 μg/ml and/or EDTA 1.0 mM where present, initial 3.4 × 10^6 cfu/ml", "value": 83.4, "unit": "%"}, {"measurement": "% survival at 1 min", "setting": "Escherichia coli; 3.0% w/v acetate pH 3.5, nisin 100 μg/ml and/or EDTA 1.0 mM where present, initial 2 × 10^7 cfu/ml", "value": 100, "unit": "%"}, {"measurement": "% survival at 1 min", "setting": "Escherichia coli; 3.0% w/v lactate pH 3.5, nisin 100 μg/ml and/or EDTA 1.0 mM where present, initial 5 × 10^7 cfu/ml", "value": 26.7, "unit": "%"}, {"measurement": "% survival at 1 min", "setting": "Escherichia coli; 3.0% w/v succinate pH 3.5, nisin 100 μg/ml and/or EDTA 1.0 mM where present, initial 3.4 × 10^6 cfu/ml", "value": 28.4, "unit": "%"}, {"measurement": "survival of E. coli on exposure to the agent by itself", "setting": "Escherichia coli; agent by itself", "value": "unaffected"}, {"measurement": "% survival at 1 min", "setting": "Escherichia coli; pH 2.0, 20 mM Na acetate buffer, nisin 100 μg/ml and/or EDTA 1.0 mM, initial 4 × 10^7 cfu/ml", "value": 0.28, "unit": "%"}, {"measurement": "% survival at 1 min", "setting": "Escherichia coli; pH 2.5, 20 mM Na acetate buffer, nisin 100 μg/ml and/or EDTA 1.0 mM, initial 4 × 10^7 cfu/ml", "value": 3.37, "unit": "%"}, {"measurement": "% survival at 1 min", "setting": "Escherichia coli; pH 3.0, 20 mM Na acetate buffer, nisin 100 μg/ml and/or EDTA 1.0 mM, initial 4 × 10^7 cfu/ml", "value": 4.43, "unit": "%"}, {"measurement": "% survival at 1 min", "setting": "Escherichia coli; pH 3.5, 20 mM Na acetate buffer, nisin 100 μg/ml and/or EDTA 1.0 mM, initial 4 × 10^7 cfu/ml", "value": 100, "unit": "%"}, {"measurement": "% survival at 1 min", "setting": "Escherichia coli; pH 4.0, 20 mM Na acetate buffer, nisin 100 μg/ml and/or EDTA 1.0 mM, initial 4 × 10^7 cfu/ml", "value": 100, "unit": "%"}, {"measurement": "Nisin NIC (nominal inhibitory concentration of nisin minimally required to prevent growth)", "setting": "E. coli strain ATCC8739; Trypticase Soy Agar supplemented with 0.1% citrate", "value": 370, "unit": "µg/mL"}, {"measurement": "Nisin NIC (nominal inhibitory concentration of nisin minimally required to prevent growth)", "setting": "E. coli strain ATCC8739; Trypticase Soy Agar supplemented with 0.3% citrate", "value": 123, "unit": "µg/mL"}, {"measurement": "Nisin NIC (nominal inhibitory concentration of nisin minimally required to prevent growth)", "setting": "E. coli strain ATCC8739; Trypticase Soy Agar supplemented with 1.0% citrate", "value": 13.7, "unit": "µg/mL"}, {"measurement": "Nisin NIC (nominal inhibitory concentration of nisin minimally required to prevent growth)", "setting": "E. coli strain ATCC8739; Trypticase Soy Agar supplemented with 3.0% citrate", "value": 0.06, "unit": "µg/mL"}, {"measurement": "Nisin NIC (nominal inhibitory concentration of nisin minimally required to prevent growth)", "setting": "E. coli strain ATCC8739; Trypticase Soy Agar, 0% citrate", "value": "3,333 μg/ml"}]}
